Among the data in US11584747B2, “Substituted pyridopyrimidinonyl compounds useful as T cell activators” (BRISTOL-MYERS SQUIBB COMPANY, priority 2019, dated 2023) are EC50 and IC50 values, retold here.

pEC50, pIC50: −log10 of the molar value. Read-outs that look alike come from different tables or passages of the source.

Experiment [1] relates to human venous whole blood (IFN-γ). As to the kind of experiment: Human whole blood IFN-γ assay. It is filed as cell-based. Here is the method:
Human venous whole blood (22.5 μL per well), obtained from healthy donors, was pre-treated with compounds for one hour at 37° C. in a humidified 95% air/5% CO2 incubator. The blood was stimulated with 2.5 μL anti-human CD3 and anti-CD28 mAb at a final concentration of 1 μg/mL each for 24 hours at 37° C. IFN-γ in the supernatants was measured using AlphLISA kit (Cat #AL217).

The next experiment addresses human DGKα (Homo sapiens (Human), UniProt P23743). As to the kind of experiment: DGKα LIPGLO assay (extruded liposome substrate, ADP-Glo luminescence). It counts as biochemical.
A further experiment concerns the target human DGKζ (Homo sapiens (Human), UniProt Q13574). As to the kind of experiment: DGKζ LIPGLO assay (extruded liposome substrate, ADP-Glo luminescence). It is filed as biochemical. For orientation: ADP-Glo turns the ADP formed in a reaction into a luminescent signal.
Setting [2] is: Homo sapiens, whole blood, normalized to 3 μM reference compound as 100% activation, read-out: IFN-γ Whole Blood Normalized EC50.
The mark [3] stands for this setting: liposome assay, read-out: DGK alpha LIPGLO IC50.
Where [4] appears, read: liposome assay, read-out: DGK zeta LIPGLO IC50.
Where [5] appears, read: whole blood, normalized to 3 μM reference compound as 100% activation, read-out: IFN-γ Whole Blood Normalized EC50.

Sequence of human DGKζ (Q13574 other isoform, or with tags, fused parts or gaps): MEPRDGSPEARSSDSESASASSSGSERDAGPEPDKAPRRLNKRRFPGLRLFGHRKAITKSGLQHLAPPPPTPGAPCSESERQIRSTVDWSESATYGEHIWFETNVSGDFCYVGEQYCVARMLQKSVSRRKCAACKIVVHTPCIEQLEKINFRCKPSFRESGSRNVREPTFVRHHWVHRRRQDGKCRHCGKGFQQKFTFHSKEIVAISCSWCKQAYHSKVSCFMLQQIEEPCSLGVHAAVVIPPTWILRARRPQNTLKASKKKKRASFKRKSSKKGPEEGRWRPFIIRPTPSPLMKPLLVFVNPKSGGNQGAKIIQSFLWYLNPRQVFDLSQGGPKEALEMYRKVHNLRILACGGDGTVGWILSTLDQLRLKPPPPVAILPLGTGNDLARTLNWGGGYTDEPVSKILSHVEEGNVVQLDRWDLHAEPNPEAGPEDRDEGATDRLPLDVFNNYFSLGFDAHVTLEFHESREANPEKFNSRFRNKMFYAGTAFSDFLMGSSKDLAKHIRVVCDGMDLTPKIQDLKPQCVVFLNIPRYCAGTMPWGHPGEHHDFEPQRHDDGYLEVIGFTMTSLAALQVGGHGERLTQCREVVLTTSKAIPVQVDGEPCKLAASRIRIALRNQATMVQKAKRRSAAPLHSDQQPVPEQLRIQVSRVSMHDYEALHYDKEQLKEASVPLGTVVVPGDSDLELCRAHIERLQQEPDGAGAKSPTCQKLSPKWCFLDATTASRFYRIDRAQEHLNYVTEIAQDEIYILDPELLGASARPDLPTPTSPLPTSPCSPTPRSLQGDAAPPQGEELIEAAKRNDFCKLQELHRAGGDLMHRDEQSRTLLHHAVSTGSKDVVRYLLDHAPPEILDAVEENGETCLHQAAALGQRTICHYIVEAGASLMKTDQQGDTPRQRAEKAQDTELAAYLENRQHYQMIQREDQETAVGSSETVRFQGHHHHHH
Sequence of human DGKα (P23743 whole entry, looked up): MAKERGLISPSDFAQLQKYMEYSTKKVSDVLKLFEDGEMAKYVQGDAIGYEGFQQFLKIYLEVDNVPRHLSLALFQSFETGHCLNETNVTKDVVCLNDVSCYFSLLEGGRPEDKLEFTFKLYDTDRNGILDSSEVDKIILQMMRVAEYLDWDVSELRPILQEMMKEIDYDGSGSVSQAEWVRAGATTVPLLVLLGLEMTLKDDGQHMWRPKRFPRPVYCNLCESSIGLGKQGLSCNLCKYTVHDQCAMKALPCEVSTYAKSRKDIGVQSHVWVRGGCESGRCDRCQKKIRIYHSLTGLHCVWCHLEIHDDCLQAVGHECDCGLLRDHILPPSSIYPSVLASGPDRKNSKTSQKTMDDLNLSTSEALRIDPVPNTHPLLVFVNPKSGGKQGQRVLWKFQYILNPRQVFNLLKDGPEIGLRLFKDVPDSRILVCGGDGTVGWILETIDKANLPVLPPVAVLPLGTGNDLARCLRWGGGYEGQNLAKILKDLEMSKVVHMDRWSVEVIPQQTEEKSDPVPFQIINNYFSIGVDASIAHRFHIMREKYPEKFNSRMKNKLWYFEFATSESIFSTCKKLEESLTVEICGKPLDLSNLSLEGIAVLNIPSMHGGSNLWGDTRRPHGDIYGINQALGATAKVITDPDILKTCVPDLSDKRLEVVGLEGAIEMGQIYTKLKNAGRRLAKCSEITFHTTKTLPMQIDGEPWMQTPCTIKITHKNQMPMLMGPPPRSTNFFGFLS

What is called pEC50 is −log10 of the EC50, conventionally taken in molar units. In general, pIC50 refers to the IC50 on a negative log10 scale, so that one unit is a factor of ten. In the case of `CC(c1cc(F)c(F)c(F)c1)N1C[C@H](C)N(c2nc(=O)n(C)c3ccc(C#N)nc23)C[C@H]1C` (single isomer, unassigned) [Example 139], the pEC50 in experiment [1] (setting [2]) was 4.70. Further, the pIC50 was 4.59 at human DGKα (setting [3]) and 5.54 on human DGKζ (setting [4]).
With `CC(c1ccc(C2CC2)cc1)N1C[C@H](C)N(c2nc(=O)n(C)c3ccc(C#N)nc23)C[C@H]1C` (single isomer, unassigned) [Example 3], the pEC50 in experiment [1] (setting [5]) is 7.51. Further, the pIC50 at human DGKα (setting [3]) is 6.72; at human DGKζ (setting [4]), 6.96.
The like results for `[2H]C([2H])([2H])Oc1ccc(C(C)N2C[C@H](CC)N(c3nc(=O)n(C)c4ccc(C#N)nc34)C[C@H]2CC)cc1` (single isomer, unassigned) [Example 190] were, in that order, 8.05, 7.54 and 7.77.
The like results for `CC[C@@H]1CN(c2nc(=O)n(C)c3ccc(C#N)nc23)[C@@H](C)CN1C(c1ccc(F)cc1)c1cccc(C(F)(F)F)n1` (single isomer, unassigned) [Example 65] were, in that order, 6.44, 5.92 and 7.00.
Regarding `CC[C@@H]1CN(c2nc(=O)n(C)c3ccc(C#N)nc23)[C@@H](CC)CN1Cc1ccc(OC(F)(F)F)cc1` [Example 22, 4-((2S,5R)-2,5-diethyl-4-(4-(trifluoromethoxy)benzyl)piperazin-1-yl)-1-methyl-2-oxo-1,2-dihydropyrido[3,2-d]pyrimidine-6-carbonitrile], the pEC50 in experiment [1] (setting [2]) is 6.42. The pIC50 on human DGKα (setting [3]) was 8.70; on human DGKζ (setting [4]), 6.74.
With `CC[C@@H]1CN(c2nc(=O)n(C)c3ccc(C#N)nc23)[C@@H](C)CN1C(C)c1ccc(C2CC2)cc1` (single isomer, unassigned) [Example 63], the pEC50 in experiment [1] (setting [5]) was 7.15. Also, the pIC50 at human DGKα (setting [3]) is 7.40; at human DGKζ (setting [4]), 7.68.
The like results for `CC(c1ccc(C2CC2)cc1)N1C[C@H](C)N(c2nc(=O)n(C)c3ccc(C#N)nc23)C[C@H]1C` (single isomer, unassigned) [Example 4] were, in that order, 6.01, 5.88 and 6.12.
Regarding `CC(c1ccc(F)cc1)N1C[C@H](C)N(c2nc(=O)n(C)c3ccc(C#N)nc23)C[C@H]1C` (single isomer, unassigned) [Example 129], the pEC50 in experiment [1] (setting [2]) was 4.88. For the same compound, the pIC50 at human DGKα (setting [3]) was 6.09; at human DGKζ (setting [4]) it was 5.81.
The corresponding values for `C[C@@H]1CN(c2nc(=O)n(C)c3ccc(C#N)nc23)[C@@H](C)CN1Cc1cc(F)c(F)cc1Cl` [Example 134, 4-((2S,5R)-4-(2-chloro-4,5-difluorobenzyl)-2,5-dimethylpiperazin-1-yl)-1-methyl-2-oxo-1,2-dihydropyrido[3,2-d]pyrimidine-6-carbonitrile] are 5.44, 5.37 and 6.11.
`CC[C@@H]1CN(c2nc(=O)n(C)c3ccc(C#N)nc23)[C@@H](C)CN1C(C)c1ccc(C(F)(F)F)cc1F` (single isomer, unassigned) [Example 58]: the pEC50 in experiment [1] (setting [5]) is 7.66. For the same compound, the negative logarithm of the IC50 (pIC50) was 6.57 at human DGKα (setting [3]) and 7.27 on human DGKζ (setting [4]).
The corresponding values for `CC[C@@H]1CN(c2nc(=O)n(C)c3ccc(C#N)nc23)[C@@H](C)CN1C(c1ccc(F)cc1)c1ccccn1` (single isomer, unassigned) [Example 87] are 6.36, 7.55 and 6.51.
For `CC[C@@H]1CN(c2nc(=O)n(C)c3ccc(C#N)nc23)[C@@H](C)CN1C(C)c1ccc(C#N)cc1` (single isomer, unassigned) [Example 61], the pEC50 in experiment [1] (setting [5]) is 5.35. Further, the pIC50 on human DGKα (setting [3]) is 7.28; on human DGKζ (setting [4]) it was 6.42.
`CC[C@H]1CN(C(C)c2ccc(OC(C)C)cc2)[C@H](CC)CN1c1nc(=O)n(C)c2ccc(C#N)nc12` (single isomer, unassigned) [Example 19]: the pEC50 in experiment [1] (setting [2]) is 5.69. The pIC50 at human DGKα (setting [3]) is 5.39; on human DGKζ (setting [4]) it was 5.51.
The like results for `C[C@@H]1CN(c2nc(=O)n(C)c3ccc(C#N)nc23)[C@@H](C)CN1Cc1ccc(F)cc1Cl` [Example 136, 4-((2S,5R)-4-(2-chloro-4-fluorobenzyl)-2,5-dimethylpiperazin-1-yl)-1-methyl-2-oxo-1,2-dihydropyrido[3,2-d]pyrimidine-6-carbonitrile] were, in that order, 6.19, 6.04 and 6.66.
On to `CC[C@H]1CN(C(C)c2ccc(C(C)(C)C#N)cc2)[C@H](CC)CN1c1nc(=O)n(C)c2ccc(C#N)nc12` (stereo partly drawn) [Example 197, 4-((2S,5R)-4-(1-(4-(2-cyanopropan-2-yl)phenyl)ethyl)-2,5-diethylpiperazin-1-yl)-1-methyl-2-oxo-1,2-dihydropyrido[3,2-d]pyrimidine-6-carbonitrile], for which, in experiment [1] (setting [5]), the pEC50 was 6.51. Also, the pIC50 on human DGKα (setting [3]) is 5.83; on human DGKζ (setting [4]), 6.66.
Consider `C[C@@H]1CN(c2nc(=O)n(C)c3ccc(C#N)nc23)[C@@H](C)CN1C(c1ccc(F)cc1)c1ccc(C#N)cc1` (stereo partly drawn) [Example 375, 4-((2S,5R)-4-((4-cyanophenyl)(4-fluorophenyl)methyl)-2,5-dimethylpiperazin-1-yl)-1-methyl-2-oxo-1,2-dihydropyrido[3,2-d]pyrimidine-6-carbonitrile], for which the pEC50 in experiment [1] (human whole blood, anti-CD3 plus anti-CD28 stimulation, 24 hours, read-out: IFN-γ Whole Blood EC50) was 5.67. In addition, the pIC50 on human DGKα (liposome (LIPGLO) assay, read-out: DGK alpha (liposome assay) IC50) was 5.86; on human DGKζ (liposome (LIPGLO) assay, read-out: DGK zeta (liposome assay) IC50), 5.22.
As for `CCC(c1ccc(OC(F)(F)F)cc1)N1C[C@H](C)N(c2nc(=O)n(C)c3ccc(C#N)nc23)C[C@H]1C` (single isomer, unassigned) [Example 155], the results for the pIC50 on human DGKα (setting [3]) and at human DGKζ (setting [4]) were 6.60 and 6.12, respectively.
`CC[C@H]1CN(C(C)c2ccc(C(F)(F)F)cc2N2CCOCC2)[C@H](CC)CN1c1nc(=O)n(C)c2ccc(C#N)nc12` (stereo partly drawn) [Example 195, 4-((2S,5R)-2,5-diethyl-4-(1-(2-morpholino-4-(trifluoromethyl)phenyl)ethyl)piperazin-1-yl)-1-methyl-2-oxo-1,2-dihydropyrido[3,2-d]pyrimidine-6-carbonitrile]: the pIC50 at human DGKα (setting [3]) was 3.90; on human DGKζ (setting [4]), 5.29.
The corresponding values for `CC[C@@H]1CN(c2nc(=O)n(C)c3ccc(C#N)nc23)[C@@H](C)CN1C(C)c1ccc(OCC2CC2)cc1` (single isomer, unassigned) [Example 67] are 6.68 and 7.48.
Consider `CC(c1ccc(OC(F)F)cc1)N1C[C@H](C)N(c2nc(=O)n(C)c3ccc(C#N)nc23)C[C@H]1C` (single isomer, unassigned) [Example 156], for which the negative-log IC50 (pIC50) is 8.00 at human DGKα (setting [3]) and 6.92 at human DGKζ (setting [4]).
The like results for `CCC(c1ccc(OC(F)F)cc1)N1C[C@H](C)N(c2nc(=O)n(C)c3ccc(C#N)nc23)C[C@H]1CC` (single isomer, unassigned) [Example 77] were, in that order, 7.44 and 7.85.
For the compound `CC[C@@H]1CN(c2nc(=O)n(C)c3ccc(C#N)nc23)[C@@H](C)CN1C(c1ccc(F)cc1)c1nc(C2CC2)cs1` (single isomer, unassigned) [Example 50], the pIC50 was 6.96 on human DGKα (setting [3]) and 7.43 at human DGKζ (setting [4]).
Turning to `CC[C@H]1CN(C(c2ccc(F)cc2)c2cccc(C(F)(F)F)n2)[C@H](C)CN1c1nc(=O)n(C)c2ccc(C#N)nc12` (stereo partly drawn) [Example 121, 4-((2S,5R)-2-ethyl-4-((4-fluorophenyl)(6-(trifluoromethyl)pyridin-2-yl)methyl)-5-methylpiperazin-1-yl)-1-methyl-2-oxo-1,2-dihydropyrido[3,2-d]pyrimidine-6-carbonitrile], the pIC50 at human DGKα (setting [3]) was 5.71; at human DGKζ (setting [4]) it was 5.78.
The like results for `CC[C@H]1CN(C(C)c2ccc(C(F)(F)F)cc2F)[C@H](C)CN1c1nc(=O)n(C)c2ccc(C#N)nc12` (stereo partly drawn) [Example 118, 4-((2S,5R)-2-ethyl-4-(1-(2-fluoro-4-(trifluoromethyl)phenyl)ethyl)-5-methylpiperazin-1-yl)-1-methyl-2-oxo-1,2-dihydropyrido[3,2-d]pyrimidine-6-carbonitrile] were, in that order, 7.02 and 7.80.
Consider `CC[C@@H]1CN(c2nc(=O)n(C)c3ccc(C#N)nc23)[C@@H](C)CN1C(C)c1ccc2c(c1)OC(F)(F)O2` (single isomer, unassigned) [Example 72], for which the pEC50 in experiment [1] (setting [5]) was 6.10. In addition, the pIC50 at human DGKα (setting [3]) was 5.82.
Turning to `CC[C@H]1CN(C(C)c2ccc(C(F)(F)F)cc2F)[C@H](C)CN1c1nc(=O)n(C)c2ccc(C#N)nc12` (stereo partly drawn) [Example 119, 4-((2S,5R)-2-ethyl-4-(1-(2-fluoro-4-(trifluoromethyl)phenyl)ethyl)-5-methylpiperazin-1-yl)-1-methyl-2-oxo-1,2-dihydropyrido[3,2-d]pyrimidine-6-carbonitrile], the values for the pIC50 at human DGKα (setting [3]) and on human DGKζ (setting [4]) were 6.19 and 6.14, respectively.
The like results for `CC[C@H]1CN(C(C)c2ccc(OC(F)(F)F)cc2)[C@H](C)CN1c1nc(=O)n(C)c2ccc(C#N)nc12` (stereo partly drawn) [Example 122, 4-((2S,5R)-2-ethyl-5-methyl-4-(1-(4-(trifluoromethoxy)phenyl)ethyl)piperazin-1-yl)-1-methyl-2-oxo-1,2-dihydropyrido[3,2-d]pyrimidine-6-carbonitrile] were, in that order, 7.49 and 5.71.
In the case of `CC[C@H]1CN(C(C)c2ccc(OC(C)C)cc2)[C@H](CC)CN1c1nc(=O)n(C)c2ccc(C#N)nc12` (single isomer, unassigned) [Example 18], the pIC50 is 7.52 at human DGKα (setting [3]) and 7.60 on human DGKζ (setting [4]).
